According to US12139492B2 (Endotarget Inc., priority 2021, dated 2024):
Like-named read-outs stand apart in the source and are kept apart here.

Tests used:
BTK = BTK (Homo sapiens, UniProt Q06187); assay: Degradation of BTK protein in Namalwa cells (Western blot; DC50, Dmax); conditions: for DC50: cell line not given
Mino cells = assay: Antiproliferative effect, MTS cell viability assay, Mino cells; type: cell-based; conditions: Homo sapiens, MINO, Mino mantle cell lymphoma cells; read-out: IC50 (anti-proliferation) Mino cells
Summary of the method: (§1)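 Readout was MTS-derived formazan absorbance (490 nm) reflecting metabolically active cells. Treatment lasted 72 h over a 0–10 μM range (0.001, 0.01, 0.1, 1, 10 μM) in JeKo-1 and Mino B-cell malignancy cells.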

JeKo-1 cells = assay: Antiproliferative effect, MTS cell viability assay, JeKo-1 cells; type: cell-based; conditions: Homo sapiens; JeKo-1 mantle cell lymphoma cells; read-out: IC50 (anti-proliferation) JeKO-1 cells
Summary of the method: as §1

[1] = read-out: DC50 (BTK degradation), concentration giving 50% reduction of BTK expression level
[2] = read-out: Dmax (BTK degradation)

Sequence of BTK (Q06187 whole entry): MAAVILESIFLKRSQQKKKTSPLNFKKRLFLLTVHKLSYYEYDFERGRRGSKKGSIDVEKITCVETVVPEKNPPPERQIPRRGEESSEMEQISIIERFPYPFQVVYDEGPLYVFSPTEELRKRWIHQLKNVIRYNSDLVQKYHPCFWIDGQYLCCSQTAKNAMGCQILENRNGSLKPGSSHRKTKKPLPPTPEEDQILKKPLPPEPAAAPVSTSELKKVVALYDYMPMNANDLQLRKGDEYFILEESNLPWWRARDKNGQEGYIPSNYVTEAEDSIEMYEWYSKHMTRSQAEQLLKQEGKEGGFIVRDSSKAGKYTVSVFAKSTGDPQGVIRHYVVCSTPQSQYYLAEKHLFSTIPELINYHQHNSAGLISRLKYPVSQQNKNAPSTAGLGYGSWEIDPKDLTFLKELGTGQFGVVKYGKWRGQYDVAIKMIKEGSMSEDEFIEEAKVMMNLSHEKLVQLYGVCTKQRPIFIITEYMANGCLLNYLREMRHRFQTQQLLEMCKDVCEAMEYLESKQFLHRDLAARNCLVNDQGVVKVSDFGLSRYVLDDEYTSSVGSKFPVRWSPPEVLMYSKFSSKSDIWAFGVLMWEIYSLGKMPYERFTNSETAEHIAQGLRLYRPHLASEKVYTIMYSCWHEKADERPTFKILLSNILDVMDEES

Row | Structure (SMILES) | DC50 (BTK; [1]) | Dmax (BTK; [2]) | IC50 (Mino cells) | IC50 (JeKo-1 cells) | Dmax (BTK) | DC50 (BTK; BTK degradation) | degradation of BTK protein (BTK; Namalwa B lymphocyte cells, various concentrations, 24 hours, Western blot)
1 | NC1=NC=NC2C1C(c1ccc(Oc3ccccc3)cc1)=NN2C1CCCN(C2CN(C(=O)N3CC(C4CN(c5ccc6c(c5)CN(C5CCC(=O)NC5=O)C6=O)C4)C3)C2)C1 (centres unmarked) [Compound 502] | 0.01 to 0.05 µM | > 90% | < 1 µM | < 1 µM | – | – | –
2 | Nc1ncnc2c1c(-c1ccc(Oc3ccccc3)cc1)nn2C1CCN(CCN2CCC(CN3CCN(c4ccc(NC5CCC(=O)NC5=O)cc4)CC3)CC2)CC1 (centres unmarked) [Compound 558, 3-((4-(4-((1-(2-(4-(4-amino-3-(4-phenoxyphenyl)-1H-pyrazolo[3,4-d]pyrimidin-1-yl)piperidin-1-yl)ethyl)piperidin-4-yl)methyl)piperazin-1-yl)phenyl)amino)piperidine-2,6-dione] | < 0.01 µM | > 90% | < 1 µM | < 1 µM | – | – | –
3 | Nc1ncnc2c1c(-c1ccc(Oc3ccccc3)cc1)nn2[C@@H]1CCCN(C(=O)N2CC(N3CCN(c4ccc5c(c4)C(=O)N(C4CCC(=O)NC4=O)C5=O)CC3)C2)C1 (stereo partly drawn) [Compound 487, 5-(4-(1-((R)-3-(4-amino-3-(4-phenoxyphenyl)-1H-pyrazolo[3,4-d]pyrimidin-1-yl)piperidine-1-carbonyl)azetidin-3-yl)piperazin-1-yl)-2-(2,6-dioxopiperidin-3-yl)isoindoline-1,3-dione] | < 0.01 µM | > 90% | < 1 µM | < 1 µM | – | – | –
4 | NC(=O)c1c(-c2ccc(Oc3ccccc3)cc2)nn2c1NCCC2C1CCN(C2CCN(CCN3CCC(c4ccc5c(c4)CN(C4CCC(=O)NC4=O)C5=O)CC3)CC2)CC1 (centres unmarked) [Compound 312, 7-(1′-(2-(4-(2-(2,6-dioxopiperidin-3-yl)-1-oxoisoindolin-5-yl)piperidin-1-yl)ethyl)-[1,4′-bipiperidin]-4-yl)-2-(4-phenoxyphenyl)-4,5,6,7-tetrahydropyrazolo[1,5-a]pyrimidine-3-carboxamide] | – | – | > 10 µM | > 10 µM | > 75% | > 0.05 µM | –
5 | Nc1ncnc2c1c(-c1ccc(Oc3ccccc3)cc1)nn2C1CCN(C2CCN(CC3CN(CC4CN(c5ccc6c(c5)CN(C5CCC(=O)NC5=O)C6=O)C4)C3)CC2)CC1 (centres unmarked) [Compound 438, 3-(5-(3-((3-((4-(4-amino-3-(4-phenoxyphenyl)-1H-pyrazolo[3,4-d]pyrimidin-1-yl)-[1,4′-bipiperidin]-1′-yl)methyl)azetidin-1-yl)methyl)azetidin-1-yl)-1-oxoisoindolin-2-yl)piperidin-2,6-dione] | 0.01 to 0.05 µM | > 90% | 1 to 10 µM | 1 to 10 µM | – | – | –
6 | Nc1ncnc2c1c(-c1ccc(Oc3ccccc3)cc1)nn2C1CCN(CCCN2CCC(CN3CCN(c4ccc(N5CCC(=O)NC5=O)cc4)CC3)C2)CC1 (centres unmarked) [Compound 551, 1-(4-(4-((1-(3-(4-(4-amino-3-(4-phenoxyphenyl)-1H-pyrazolo[3,4-d]pyrimidin-1-yl)piperin-1-yl)propyl)pyrrolidin-3-yl)methyl)piperazin-1-yl)phenyl)dihydropyrimidine-2,4(1H,3H)-dione] | 0.01 to 0.05 µM | > 90% | < 1 µM | < 1 µM | – | – | –
7 | Nc1ncnc2c1c(-c1ccc(Oc3ccccc3)cc1)nn2C1CCN(CC2CCN(CC3CN(c4ccc5c(c4)C(=O)N(C4CCC(=O)NC4=O)C5=O)C3)CC2)CC1 (centres unmarked) [Compound 429, 5-(3-((4-((4-(4-amino-3-(4-phenoxyphenyl)-1H-pyrazolo(3,4-d)pyrimidin-1-yl)piperidin-1-yl)methyl)piperidin-1-yl)methyl)azetidin-1-yl)-2-(2,6-dioxopiperidin-3-yl)isoindoline-1,3-dione] | 0.01 to 0.05 µM | > 90% | < 1 µM | 1 to 10 µM | – | – | –
8 | NC1=NC=NC2C1C(c1ccc(Oc3ccccc3)cc1)=NN2C1CCN(C(=O)N2CC(C3CN(c4ccc5c(c4)C(=O)N(C4CCC(=O)NC4=O)C5=O)C3)C2)CC1 (centres unmarked) [Compound 493, 5-(1′-(4-(4-amino-3-(4-phenoxyphenyl)-3a,7a-dihydro-1H-pyrazolo[3,4-d]pyrimidin-1-yl)piperidine-1-carbonyl)-[3,3′-biazetidin]-1-yl)-2-(2,6-dioxopiperidin-3-yl)isoindoline-1,3-dione] | 0.01 to 0.05 µM | > 90% | < 1 µM | < 1 µM | – | – | –
9 | Nc1ncnc2c1c(-c1ccc(Oc3ccccc3)cc1)nn2[C@@H]1CCCN(C2CN(C(=O)N3CCC(N4CCN(c5ccc6c(c5)C(=O)N(C5CCC(=O)NC5=O)C6=O)CC4)CC3)C2)C1 (stereo partly drawn) [Compound 481, 5-(4-(1-(3-((R)-3-(4-amino-3-(4-phenoxyphenyl)-1H-pyrazolo[3,4-d]pyrimidin-1-yl)piperidin-1-yl)azetidin-1-carbonyl)piperidin-4-yl)piperazin-1-yl)-2-(2,6-dioxopiperidin-3-yl)isoindoline-1,3-dione] | < 0.01 µM | > 90% | 1 to 10 µM | 1 to 10 µM | – | – | –
10 | Nc1ncnc2c1c(-c1ccc(Oc3ccccc3)cc1)nn2C1CCC(C(=O)N2CC(N3CCN(c4ccc5c(c4)CN(C4CCC(=O)NC4=O)C5=O)CC3)C2)CC1 (centres unmarked) [Compound 512, 3-(5-(4-(1-(4-(4-amino-3-(4-phenoxyphenyl)-1H-pyrazolo[3,4-d]pyrimidin-1-yl)cyclohexane-1-carbonyl)azetidin-3-yl)piperazin-1-yl)-1-oxoisoindolin-2-yl)piperidine-2,6-dione] | < 0.01 µM | > 90% | < 1 µM | < 1 µM | – | – | –
11 | NC(=O)c1c(-c2ccc(Oc3ccccc3)cc2)nn2c1NCCC2C1CCN(CC2CCN(CCN3CCN(c4ccc5c(c4)C(=O)N(C4CCC(=O)NC4=O)C5=O)CC3)CC2)CC1 (centres unmarked) [Compound 315, 7-(1-((1-(2-(4-(2-(2,6-dioxopiperidin-3-yl)-1,3-dioxoisoindolin-5-yl)piperazin-1-yl)ethyl)piperidin-4-yl)methyl)piperidin-4-yl)-2-(4-phenoxyphenyl)-4,5,6,7-tetrahydropyrazolo[1,5-a]pyrimidine-3-carboxamide] | – | – | 1 to 10 µM | 1 to 10 µM | > 75% | > 0.05 µM | –
12 | Nc1ncnc2c1c(-c1ccc(Oc3ccccc3)cc1)nn2C1CCN(CCCN2CCC(CC3CCN(c4ccc(NC5CCC(=O)NC5=O)cc4)CC3)CC2)CC1 (centres unmarked) [Compound 561, 3-((4-(4-((1-(3-(4-(4-amino-3-(4-phenoxyphenyl)-1H-pyrazolo[3,4-d]pyrimidin-1-yl)piperidin-1-yl)propyl)piperidin-4-yl)methyl)piperidin-1-yl)phenyl)amino)piperidine-2,6-dione] | 0.01 to 0.05 µM | > 90% | < 1 µM | < 1 µM | – | – | –
13 | Nc1ncnc2c1c(-c1ccc(Oc3ccccc3)cc1)nn2C1CCN(CC2CCN(CC3CN(CC4CN(c5ccc6c(c5)C(=O)N(C5CCC(=O)NC5=O)C6=O)C4)C3)C2)CC1 (centres unmarked) [Compound 427, 5-(3-((3-((3-((4-(4-amino-3-(4-phenoxyphenyl)-1H-pyrazolo(3,4-d)pyrimidin-1-yl)piperidin-1-yl)methyl)pyrrolidin-1-yl)methyl)azetidin-1-yl)methyl)azetidin-1-yl)-2-(2,6-dioxopiperidin-3-yl)isoindoline-1,3-dione] | > 0.05 µM | > 90% | 1 to 10 µM | 1 to 10 µM | – | – | dose-dependent degradation
